Counter-ions that a name gives are not always drawn.
Experiments:
BACE‐1 = target: T1, BACE‐1 (Homo sapiens, UniProt P56817); assay: BACE-1 FRET protease assay; type: biochemical; conditions: mean and SD of 4 replicate FRET experiments, 37 °C; highest concentration tested 11 μM
T1 construct: purchased Sigma S4195

PMIX = tested on: PMIX; set-up: method as in PMID 29074775, PMID 32109369, PMID 23260352, PMID 29519896; conditions: Figure 1, described in literature; cited from earlier work
recombinant Pf PMIX = target: T2, recombinant Pf PMIX (Plasmodium falciparum, UniProt Q8ILG2); assay: PMIX FRET protease assay; type: biochemical, P. falciparum; conditions: mean and SD of 4 replicate FRET experiments, 37 °C
T2 construct: made in house
T2 sequence (Q8ILG2 whole entry): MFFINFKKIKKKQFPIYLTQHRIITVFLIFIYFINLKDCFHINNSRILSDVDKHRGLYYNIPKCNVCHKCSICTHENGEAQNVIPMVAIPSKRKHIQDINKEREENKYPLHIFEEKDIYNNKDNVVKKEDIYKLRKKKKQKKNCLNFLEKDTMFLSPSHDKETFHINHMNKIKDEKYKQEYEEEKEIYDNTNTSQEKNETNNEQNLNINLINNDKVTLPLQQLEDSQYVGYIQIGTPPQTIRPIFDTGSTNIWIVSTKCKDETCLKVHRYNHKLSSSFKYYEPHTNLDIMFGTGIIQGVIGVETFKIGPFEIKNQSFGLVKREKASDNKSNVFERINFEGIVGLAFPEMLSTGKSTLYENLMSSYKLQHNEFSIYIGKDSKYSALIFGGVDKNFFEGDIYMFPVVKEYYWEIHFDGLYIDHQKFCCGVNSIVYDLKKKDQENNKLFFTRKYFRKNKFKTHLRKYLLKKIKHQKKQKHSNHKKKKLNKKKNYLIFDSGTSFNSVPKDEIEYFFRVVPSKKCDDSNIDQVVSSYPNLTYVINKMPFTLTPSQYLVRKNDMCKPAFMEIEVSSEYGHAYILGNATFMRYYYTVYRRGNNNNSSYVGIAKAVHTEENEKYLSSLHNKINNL
Description: (§1) FRET Protease Assays. FRET protease assays were performed as previously described.[19, 20, 27, 28] Briefly, ten‐point 1 : 3‐fold dilution series of the compounds were prepared in 384‐well black low volume assay plates (Greiner) using an Echo555 (Labcyte). 10 mM compound stocks were transferred into assay plates such that the starting concentration was 90 μM (Pv PMV assays), 11.25 μM (renin, cathepsin D and BACE‐1 assays) or 100 nM and 10 μM (Pf PMX and Pf PMIX assays). All wells were backfilled to 200 nL DMSO such that the DMSO concentration remained constant across the assay plates (1 % final). All compound potency assays were conducted in 20 μL total volume. For each assay, 10 μL of recombinant enzymes in respective assay buffers (Table S2) were dispensed into compound containing assay plates using a Multidrop‐Combi dispenser and allowed to incubate for 15 min. Recombinant Pf PMX, Pf PMIX and Pv PMV were expressed as previously described,[23, 27, 28] and recombinant human aspartyl proteases were purchased commercially. 10 μL of the fluorogenic peptide substrates incubated at 37 °C for the duration and conditions noted in Table S2. Samples were excited at 340 nm and fluorescence emission measured at 492 nm using an Envision fluorescence plate reader (Perkin‐Elmer). The 0 % inhibition control contained DMSO alone (1 % final) and the 100 % inhibition control was in the absence of enzyme. Half‐maximal inhibitory concentration (IC50) values were calculated by GraphPad Prism (8.0.2) software using a nonlinear regression four‐parameter fit analysis using a sigmoidal dose response (variable slope).
(§2) Table S2 . P rotease FRET assay conditions.
(§3) PMX as sa y PMIX PM V assay Renin assay Cathepsin D assay BA CE-1 assay E nzy me prot e as e 0.25 nM pro te a se 6 nM prot e as e q ua nti ty 0.1 nM pro t ea se 1.5 nM pro t ea se 2.5 nM pro t ea se 3 nM (Pro te os #R-001) ( Athe ns Re sea rc h (Sigma #S4195) […]
(§4) 25mM so di um acetate, 100 mM 25 mM M E S, 25 m M 50 mM Tr is, 100 mM 100 mM so di u m 20 mM so dium Buffer acetate, 0.005% sodium chloride and Tris-HCl, 0.01% N aC l, 0. 1% Bri j-35, acetate 0.02% scetate, 0.05% […]
(§5) Sub str at e DABCYL- ( DA BC YL ) - DABCYL- DABCYL-(γ- Ab u) - E[E(EDANS)]KPIL […]

Pf 3D7 = tested on: Pf 3D7; set-up: method as in PMID 29074775, PMID 32109369, PMID 23260352, PMID 29519896; conditions: Figure 1, described in literature; cited from earlier work
PMX = conditions: cited from earlier work
recombinant Pv PMV = target: T3, recombinant Pv PMV (Plasmodium vivax, UniProt A5K302); assay: PMV FRET protease assay; type: biochemical
T3 construct: made in house
T3 sequence (A5K302 35-536): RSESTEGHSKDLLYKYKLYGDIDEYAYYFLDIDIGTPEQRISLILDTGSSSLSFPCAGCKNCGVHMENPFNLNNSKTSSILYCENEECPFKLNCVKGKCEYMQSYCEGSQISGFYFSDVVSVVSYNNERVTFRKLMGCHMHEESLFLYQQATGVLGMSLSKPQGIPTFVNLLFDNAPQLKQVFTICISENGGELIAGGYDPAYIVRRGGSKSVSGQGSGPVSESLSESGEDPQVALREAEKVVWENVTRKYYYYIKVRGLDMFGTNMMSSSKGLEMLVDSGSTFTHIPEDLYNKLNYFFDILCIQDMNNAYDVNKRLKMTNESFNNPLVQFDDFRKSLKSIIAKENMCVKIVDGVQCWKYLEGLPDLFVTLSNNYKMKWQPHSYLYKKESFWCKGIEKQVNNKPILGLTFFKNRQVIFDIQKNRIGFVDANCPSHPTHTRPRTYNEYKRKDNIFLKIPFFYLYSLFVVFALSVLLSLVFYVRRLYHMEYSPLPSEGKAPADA
Description: as §1, §2, §3, §4, §5

[1] = tested on: PMIX processing of the ASP protein; assay: ASP processing inhibition assay in parasites (western blot, anti-HA); type: cell-based, P. falciparum; conditions: 38 at 10 μM, HA‐tagged ASP parasites
Description: (§6) In this experiment, synchronized late trophozoite/early schizont stage parasites, expressing HA‐tagged ASP, were incubated with 38 (10 μM), the positive control WM382 (1) (2.5 nM) (a dual potent inhibitor of PMIX and PMX) and the DMSO vehicle control. Parasites from each treatment condition were then lysed and the processing of the known PMX and PMIX substrates were detected by western blot as a corollary of protease activity.
P. falciparum ASP and SERA5 Processing Inhibition Assay. P. falciparum substrate processing inhibition assays were performed as previously described.[28] Synchronized ring stage cultures were treated with test compounds 38 (10 μM) and WM382 (2.5 nM)[28] or DMSO as a vehicle control. The parasite cultures were grown to the schizont stage before passing over LD magnetic columns (Miltenyi Biotech) to remove uninfected erythrocytes. Parasites were eluted from columns with RPMI 1640 (in‐house) culture medium to which the appropriate inhibitor at the same concentration had been added. Eluted parasites were adjusted to 5×10^6 schizonts/mL and 150 μL added per well of a 96‐well flat‐bottomed culture plate. […] HA‐tagged apical sushi protein (ASP) was detected in the merozoite fraction with anti‐HA mAb and SERA5 was detected in the supernatant fraction with an anti‐SERA5 polyclonal Ab. […]

in vitro = type: cell-based; conditions: human
Description: HepG2 Cytotoxicity Assay. HepG2 cytotoxicity assays were performed as previously described.[41] Briefly, human hepatocyte HepG2 cells were cultured in DMEM supplemented with 10 % FCS at 37 °C and 5 % CO2 in a humidified incubator. Cells were seeded at 1000 cells/well in 50 μL in 384‐well plates (Grenier) and compounds incubated in ten‐point 1 : 2‐fold dilution series for 48 h. Cytotoxicity was determined using Cell Titer‐Glo (Promega), normalized to DMSO alone controls (100 % viability) and control compound Bortezomib (0 % viability at 10 μM). CC50 values were calculated by GraphPad Prism (8.0.2) software using a nonlinear regression four‐parameter fit analysis with the sigmoidal dose response (variable slope).

[2] = tested on: SERA5 processing by SUB1, indicative of upstream activity by PMX; assay: SERA5 processing inhibition assay in parasites (western blot, anti-SERA5); type: cell-based, P. falciparum; conditions: 38 at 10 μM
Excerpt: PMX and PMIX ligand cleavage in P. falciparum parasites. It was next determined whether 38 could inhibit PMX and PMIX processing of known invasion and egress ligands in P. falciparum parasites. […] SERA5 is not a direct substrate of PMX, but is processed by SUB1 which itself is activated by PMX. The degree of downstream processing of SERA5 by SUB1 is indicative of PMX activity.
as §6
P. falciparum ASP and SERA5 Processing Inhibition Assay. P. falciparum substrate processing inhibition assays were performed as previously described.[28] Synchronized ring stage cultures were treated with test compounds 38 (10 μM) and WM382 (2.5 nM)[28] or DMSO as a vehicle control. […] HA‐tagged apical sushi protein (ASP) was detected in the merozoite fraction with anti‐HA mAb and SERA5 was detected in the supernatant fraction with an anti‐SERA5 polyclonal Ab. […]

T1 sequence (P56817 46-460 limits assumed): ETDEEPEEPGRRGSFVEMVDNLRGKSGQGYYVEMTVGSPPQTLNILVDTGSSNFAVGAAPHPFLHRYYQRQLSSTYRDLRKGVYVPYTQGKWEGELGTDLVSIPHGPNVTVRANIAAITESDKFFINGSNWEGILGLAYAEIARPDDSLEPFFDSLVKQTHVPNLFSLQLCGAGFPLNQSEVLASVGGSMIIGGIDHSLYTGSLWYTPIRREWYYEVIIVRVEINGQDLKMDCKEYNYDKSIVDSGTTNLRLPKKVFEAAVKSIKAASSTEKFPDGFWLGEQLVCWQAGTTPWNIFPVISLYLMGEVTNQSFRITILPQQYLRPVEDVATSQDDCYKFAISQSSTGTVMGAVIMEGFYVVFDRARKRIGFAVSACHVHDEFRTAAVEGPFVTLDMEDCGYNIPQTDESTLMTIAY

Row | SMILES | IC50 (BACE‐1) [µM] | IC50 (PMIX) [µM] | IC50 (recombinant Pf PMIX) [µM] | EC50 (Pf 3D7) [µM] | IC50 (PMX; Figure 1, described in literature) [µM] | selectivity for PMX compared to PMIX (PMX) [fold] | IC50 (recombinant Pv PMV) [µM] | ASP processing by PMIX (western blot) [1] | CC50 at 48 h (in vitro) [µM] | SERA5 processing (western blot) [2]
1 | C[C@@H](NC[C@@H](O)[C@H](Cc1ccccc1)NC(=O)c1ccc(C(=O)N2CCN(C)CC2)cc1)c1ccccc1 [Compd 2, reference compound] | > 11 | 0.65 | 15.1 | 0.0006 | 0.0014 | > 500 | > 90 | – | – | –
2 | C[C@@H](NC[C@@H](O)[C@H](Cc1ccccc1)NC(=O)[C@H](CO)NC(=O)OCc1ccccc1)c1ccccc1 [Compd 38, Cbz‐Ser‐Phe‐HEA‐Bn(CH3)⋅TFA] | > 11 | – | 41 | – | – | – | > 90 | partial inhibition of PMIX processing | > 40 | complete inhibition of SERA5 processing

Source: publication PMC9804387, “Substrate Peptidomimetic Inhibitors of P. falciparum Plasmepsin X with Potent Antimalarial Activity” (Chemmedchem, 2022)
